Where a name gives a salt, the structure may show the parent alone.

We go through 24 compounds from US7109234B2, “Benzoxathiepine derivatives and their use as medicines” (Pierre Fabre Medicament, priority 2001, dated 2006).

In turn, `CC[C@@H](CN[C@@H]1COc2ccccc2SC1)CSc1ccccc1OC` (as salt: fumarate) [Compound 1-9, 3-(R)-[3-(2-Methoxyphenylthio)-2-(S)-ethylpropyl]amino-3,4-dihydro-2H-1,5-benzoxathiepine] registered a melting point of 86 to 88 °C.

As to `COc1ccccc1SC[C@H](CN[C@@H]1COc2ccccc2SC1)OC` (as salt: maleate) [Compound 1-1, 3-(R)-[3-(2-Methoxyphenylthio)-2-(S)-methoxypropyl]amino-3,4-dihydro-2H-1,5-benzoxathiepine], the melting point stood at 122 °C.

For the compound `COc1ccccc1SC[C@@H](CN[C@@H]1COc2ccccc2SC1)OC` (as salt: maleate) [Compound 1-2, 3-(R)-[3-(2-Methoxyphenylthio)-2-(R)-methoxypropyl]amino-3,4-dihydro-2H-1,5-benzoxathiepine], the melting point came to 116 °C.

As to `COc1ccccc1SC[C@@H](O)CN[C@@H]1COc2ccccc2SC1` (as salt: maleate) [Compound 1-5, 3-(R)-[3-(2-Methoxyphenylthio)-2-(S)-hydroxypropyl]amino-3,4-dihydro-2H-1,5-benzoxathiepine], the melting point fell in the range of 133 to 135 °C.

`COc1ccccc1SC[C@H](O)CN[C@@H]1COc2ccccc2SC1` (as salt: maleate) [Compound 1-6, 3-(R)-[3-(2-Methoxyphenylthio)-2-(R)-hydroxypropyl]amino-3,4-dihydro-2H-1,5-benzoxathiepine] showed a melting point of 136 to 138 °C.

`CC[C@H](CN[C@@H]1COc2ccccc2SC1)CSc1ccccc1OC` (as salt: maleate) [Compound 1-10, 3-(R)-[3-(2-Methoxyphenylthio)-2-(R)-ethylpropyl]amino-3,4-dihydro-2H-1,5-benzoxathiepine] displayed a melting point of 140 °C.

With `CCC[C@@H](CN[C@@H]1COc2ccccc2SC1)CSc1ccccc1OC` (as salt: maleate) [Compound 1-11, 3-(R)-[3-(2-Methoxyphenylthio)-2-(S)-(n-propyl)propyl]amino-3,4-dihydro-2H-1,5-benzoxathiepine], the melting point lay within 132 to 133 °C.

In turn, `CCC[C@H](CN[C@@H]1COc2ccccc2SC1)CSc1ccccc1OC` (as salt: maleate) [Compound 1-12, 3-(R)-[3-(2-Methoxyphenylthio)-2-(R)-(n-propyl)propyl]amino-3,4-dihydro-2H-1,5-benzoxathiepine] registered a melting point of 131 to 133 °C.

In the case of `COc1ccccc1SC[C@H](CN[C@@H]1COc2ccccc2SC1)C(C)C` (as salt: maleate) [Compound 1-13, 3-(R)-[3-(2-Methoxyphenylthio)-2-(S)-(isopropyl)propyl]amino-3,4-dihydro-2H-1,5-benzoxathiepine], the melting point lay in the range of 114 to 115 °C.

As for `COc1ccccc1SC[C@@H](C)CN[C@@H]1COc2ccc(C)cc2SC1` (as salt: maleate) [Compound 1-14, 3-(R)-[3-(2-Methoxyphenylthio)-2-(S)-methylpropyl]amino-7-methyl-3,4-dihydro-2H-1,5-benzoxathiepine], the melting point turned out to be 148 °C.

`COc1ccccc1SC[C@@H](C)CN[C@@H]1COc2cccc(C)c2SC1` (as salt: maleate) [Compound 1-15, 3-(R)-[3-(2-Methoxyphenylthio)-2-(S)-methylpropyl]amino-6-methyl-3,4-dihydro-2H-1,5-benzoxathiepine]: the melting point lay in the range of 111 to 113 °C.

Consider `C[C@@H](CN[C@@H]1COc2ccccc2SC1)CSc1cccc2c1OCC2` (as salt: maleate) [Compound 1-16, 3-(R)-[3-(2,3-Dihydrobenzofuran-7-thio)-2-(S)-methylpropyl]amino-3,4-dihydro-2H-1,5-benzoxathiepine], for which the melting point was 116 to 118 °C.

Take `Cc1cccc(SC[C@@H](C)CN[C@@H]2COc3ccccc3SC2)c1O` (as salt: maleate) [Compound 1-17, 3-(R)-[3-(2-Hydroxy-3-methylphenylthio)-2-(S)-methylpropyl]amino-3,4-dihydro-2H-1,5-benzoxathiepine]: the melting point lay within 124 to 126 °C.

Compound `C[C@@H](CN[C@@H]1COc2ccccc2SC1)CSc1ccccc1O` (as salt: maleate) [Compound 1-18, 3-(R)-[3-(2-Hydroxyphenylthio)-2-(S)-methylpropyl]amino-3,4-dihydro-2H-1,5-benzoxathiepine] showed a melting point of 119 to 121 °C.

The compound `CCc1cccc(SC[C@@H](C)CN[C@@H]2COc3ccccc3SC2)c1O` (as salt: maleate) [Compound 1-19, 3-(R)-[3-(2-Hydroxy-3-ethylphenylthio)-2-(S)-methylpropyl]amino-3,4-dihydro-2H-1,5-benzoxathiepine] showed a melting point of 120 °C.

`CC[C@@H](CN[C@@H]1COc2ccccc2SC1)CSc1cccc(C)c1O` (as salt: maleate) [Compound 1-20, 3-(R)-[3-(2-Hydroxy-3-methylphenylthio)-2-(S)-ethylpropyl]amino-3,4-dihydro-2H-1,5-benzoxathiepine] returned a melting point of 111 to 112 °C.

`Cc1cccc(SC[C@H](CN[C@@H]2COc3ccccc3SC2)C(C)C)c1O` (as salt: maleate) [Compound 1-21, 3-(R)-[3-(2-Hydroxy-3-methylphenylthio)-2-(S)-(isopropyl)propyl]amino-3,4-dihydro-2H-1,5-benzoxathiepine] returned a melting point of 127 °C.

In turn, `Cc1cccc(SC[C@@H](C)CN[C@@H]2COc3cccc(C)c3SC2)c1O` (as salt: maleate) [Compound 1-22, 3-(R)-[3-(2-Hydroxy-3-methylphenylthio)-2-(S)-methylpropyl]amino-6-methyl-3,4-dihydro-2H-1,5-benzoxathiepine] yielded a melting point of 108 to 109 °C.

The compound `COc1cccc(SC[C@@H](C)CN[C@@H]2COc3ccccc3SC2)c1O` (as salt: maleate) [Compound 1-23, 3-(R)-[3-(2-Hydroxy-3-methoxyphenylthio)-2-(S)-methylpropyl]amino-3,4-dihydro-2H-1,5-benzoxathiepine] registered a melting point of 137 to 139 °C.

As for `COc1cccc(SC[C@@H](C)CN[C@@H]2COc3ccccc3SC2)c1OC` (as salt: maleate) [Compound 1-24, 3-(R)-[3-(2,3-Dimethoxyphenylthio)-2-(S)-methylpropyl]amino-3,4-dihydro-2H-1,5-benzoxathiepine], the melting point lay in the range of 117 to 119 °C.

Compound `CC(C)c1cccc(SC[C@@H](C)CN[C@@H]2COc3ccccc3SC2)c1O` (as salt: maleate) [Compound 1-25, 3-(R)-[3-(2-Hydroxy-3-(isopropyl)phenylthio)-2-(S)-methylpropyl]amino-3,4-dihydro-2H-1,5-benzoxathiepine] showed a melting point of 126 °C.

Compound `Cc1cccc(O)c1SC[C@@H](C)CN[C@@H]1COc2ccccc2SC1` (as salt: maleate) [Compound 1-26, 3-(R)-[3-(2-Hydroxy-6-methylphenylthio)-2-(S)-methylpropyl]amino-3,4-dihydro-2H-1,5-benzoxathiepine] returned a melting point of 153 to 154 °C.

With `Oc1ccccc1SC[C@@H](O)CN[C@@H]1COc2ccccc2SC1` (as salt: oxalate) [Compound 1-3, 3-(R)-[3-(2-Hydroxyphenylthio)-2-(S)-hydroxypropyl]amino-3,4-dihydro-2H-1,5-benzoxathiepine], the melting point lay within 176 to 177 °C.

The compound `Oc1ccccc1SC[C@H](O)CN[C@@H]1COc2ccccc2SC1` (as salt: oxalate) [Compound 1-4, 3-(R)-[3-(2-Hydroxyphenylthio)-2-(R)-hydroxypropyl]amino-3,4-dihydro-2H-1,5-benzoxathiepine] displayed a melting point of 135 °C.

The term melting point denotes the temperature, or range, at which the solid turns liquid.
